Marks after values point to notes of the source that are not given here.
How the values were obtained:
[1] = tested on: radiolabeled mAb-conjugates; assay: In vitro Label release from radiolabeled mAb-TCO-chelate conjugates incubated with Cleaving Agents (SEC); details: 37°C, 15-24 h; for release (%) without Cleaving Agent: TCO derivative conjugated to trastuzumab, no Cleaving Agent
Description: Briefly, mAb solutions in PBS (4 mg/mL final concentration) were added with 15-20 eq of the NHS-derivative (dissolved at 10 mg/mL in DMSO) and the pH was adjusted to 9 with 1M sodium carbonate. The reaction mixtures were incubated at rt in the dark for 2 h then the products were purified by dialysis (20 kDa MW cut-off membranes) in chelex-treated 0.25M NH4OAc pH 5.5.
After 15-24 h incubation the mixtures were analyzed by SEC and the amount of released Label was quantified from the radioactivity elution profile.

[2] = ^111In biodistribution in normal mice after ^111In-trastuzumab-1.8 followed by 2.10 or vehicle; type: in vivo
[3] = Radioactivity in blood and tumors stated jointly for LS174T and BT-474 tumor-bearing mice (^111In-trastuzumab-1.8, 2.10); type: in vivo; details: ^111In-trastuzumab-1.8 followed by 2.10 48 h post-injection
Description: Female Balb/C mice were injected ca 1 million LS174T colon carcinoma cells or 10 million BT-474 breast cancer cells s.c. in the flank. […] Control groups were euthanized 72 h post-mAb injection.

[4] = design: species or system mice; details: female, Balb/C nude, mouse, in vivo
Description: Blood samples were withdrawn 5 min before and at various times after Cleaving Agent administration and the radioactivity was measured in a gamma-counter.

[5] = Label release from TCO derivative 1.14 on CC49, ^89Zr, PBS
[6] = Label release from TCO derivative 1.15 on CC49, ^89Zr, PBS
[7] = Label release from TCO derivative 1.17 on CC49, ^89Zr, PBS
[8] = Label release from TCO derivative 1.2 on trastuzumab, ^111In, 50% mouse plasma in PBS
[9] = Label release from TCO derivative 1.2 on trastuzumab, ^111In, PBS
[10] = Label release from TCO derivative 1.8 on trastuzumab, ^111In, 50% mouse plasma in PBS
[11] = Label release from TCO derivative 1.8 on trastuzumab, ^111In, PBS
[12] = ^111In-trastuzumab-1.8 followed by 2.10 1 h post-mAb, euthanized 24 h later, SD, n = 4
[13] = ^111In-trastuzumab-1.8 followed by 2.10 24 h post-mAb, euthanized 24 h later, SD, n = 4

In the case of `O=C(CCCC(=O)Nc1cnccc1-c1nnc(-c2ccncc2NC(=O)CCCC(=O)NCCOCCOCCOCCOCCOCCOCCOCCOCCOCCO)nn1)NCCOCCOCCOCCOCCOCCOCCOCCOCCOCCO` [Compound 2.10, N^1,N^1′-(4,4′-(1,2,4,5-Tetrazine-3,6-diyl)bis(pyridine-4,3-diyl))bis(N^5-(29-hydroxy-3,6,9,12,15,18,21,24,27-nonaoxanonacosyl)glutaramide)], the “release (%)” value [1, 5] was 45.2%, the “release (%)” value [1, 6] was 50.0% and the “release (%)” value [1, 7] was 50.0%. For the same compound, the “release (%)” value [1, 8] was 52.2%, the “release (%)” value [1, 9] was 53.4% and the “release (%)” value ([1]; Label release from TCO derivative 1.4 on trastuzumab, ^111In, PBS) was 57.9%. The “release (%)” value ([1]; Label release from TCO derivative 1.8 on CC49, ^111In, PBS) was 79.9%, the “release (%)” value ([1]; Label release from TCO derivative 1.8 on cetuximab, ^111In, PBS) was 84.9% and the “release (%)” value ([1]; Label release from TCO derivative 1.8 on girentuximab, ^111In, PBS) was 83.6%. The “release (%)” value ([1]; Label release from TCO derivative 1.8 on rituximab, ^111In, PBS) was 82.5%, the “release (%)” value [1, 10] was 82.4, 82.4^a % and the “release (%)” value [1, 11] was 82.4, 82.4^a %. For the same compound, the “release (%)” value ([1]; Label release from TCO derivative 1.8 on trastuzumab, ^177Lu, PBS) was 81.2%, the “reduction in blood radioactivity with respect to control mice” value ([2]; ^111In-trastuzumab-1.8 (ca. 0.5 mg/kg) followed by 2.10 (ca. 33.5 μmol/kg) either 1 h or 24 h post-mAb, 24 h after Cleaving Agent) was “ca. 70%” and the “^111In biodistribution, Blood” value [2, 12] was 3.61 ± 0.44 % injected dose per gram. For the same compound, the “^111In biodistribution, Bone” value [2, 12] was 0.44 ± 0.03 % injected dose per gram, the “^111In biodistribution, Brain” value [2, 12] was 0.13 ± 0.08 % injected dose per gram and the “^111In biodistribution, Heart” value [2, 12] was 0.87 ± 0.10 % injected dose per gram. For the same compound, the “^111In biodistribution, Kidney L” value [2, 12] was 5.39 ± 0.84 % injected dose per gram, the “^111In biodistribution, Lg. intestine” value [2, 12] was 0.34 ± 0.07 % injected dose per organ and the “^111In biodistribution, Liver” value [2, 12] was 3.35 ± 0.10 % injected dose per gram. The “^111In biodistribution, Lung” value [2, 12] was 1.94 ± 0.43 % injected dose per gram, the “^111In biodistribution, Muscle” value [2, 12] was 0.27 ± 0.02 % injected dose per gram and the “^111In biodistribution, Sm. Intestine” value [2, 12] was 0.61 ± 0.04 % injected dose per organ. For the same compound, the “^111In biodistribution, Spleen” value [2, 12] was 1.19 ± 0.16 % injected dose per gram, the “^111In biodistribution, Blood” value [2, 13] was 2.91 ± 0.53 % injected dose per gram and the “^111In biodistribution, Bone” value [2, 13] was 0.65 ± 0.03 % injected dose per gram. The “^111In biodistribution, Brain” value [2, 13] was 0.11 ± 0.02 % injected dose per gram, the “^111In biodistribution, Heart” value [2, 13] was 0.93 ± 0.09 % injected dose per gram and the “^111In biodistribution, Kidney L” value [2, 13] was 4.75 ± 0.45 % injected dose per gram. The “^111In biodistribution, Lg. intestine” value [2, 13] was 0.56 ± 0.14 % injected dose per organ, the “^111In biodistribution, Liver” value [2, 13] was 4.68 ± 1.11 % injected dose per gram and the “^111In biodistribution, Muscle” value [2, 13] was 0.29 ± 0.05 % injected dose per gram. For the same compound, the “^111In biodistribution, Sm. Intestine” value [2, 13] was 1.04 ± 0.21 % injected dose per organ, the “^111In biodistribution, Spleen” value [2, 13] was 1.89 ± 0.17 % injected dose per gram and the “radioactivity uptake in tumors versus control mice” value ([3]; euthanized 24 h later) was “somewhat lower”. For the same compound, the radioactivity in blood ([3]; euthanized 24 h later (LS174T or BT-474)) was 2-3 % ID/g.
For `Oc1cccnc1-c1nnc(-c2ncccc2O)nn1` [Compound 2.1, 2,2′-(1,2,4,5-Tetrazine-3,6-diyl)bis(pyridin-3-ol)], the “release (%)” value [1, 5] was 53.0%, the “release (%)” value [1, 6] was 62.3% and the “release (%)” value ([1]; Label release from TCO derivative 1.17 on CC49, ^89Zr, 50% mouse plasma in PBS) was 81.3%. For the same compound, the “release (%)” value [1, 7] was 88.0%, the “release (%)” value ([1]; Label release from TCO derivative 1.17 on trastuzumab, ^89Zr, PBS) was 88.9% and the “release (%)” value ([1]; Label release from TCO derivative 1.2 on CC49, ^111In, PBS) was 80.3%. The “release (%)” value ([1]; Label release from TCO derivative 1.2 on cetuximab, ^111In, PBS) was 85.7%, the “release (%)” value ([1]; Label release from TCO derivative 1.2 on girentuximab, ^111In, PBS) was 83.2% and the “release (%)” value ([1]; Label release from TCO derivative 1.2 on rituximab, ^111In, PBS) was 77.9%. For the same compound, the “release (%)” value [1, 8] was 88.1%, the “release (%)” value [1, 9] was 78.2% and the “release (%)” value ([1]; Label release from TCO derivative 1.4 on trastuzumab, ^111In, 50% mouse plasma in PBS) was 81.8^a %. For the same compound, the “release (%)” value ([1]; Label release from TCO derivative 1.6 on trastuzumab, ^111In, 50% mouse plasma in PBS) was 68.9%, the “release (%)” value ([1]; Label release from TCO derivative 1.6 on trastuzumab, ^111In, PBS) was 83.6% and the “release (%)” value ([1]; Label release from TCO derivative 1.7 on trastuzumab, ^111In, 50% mouse plasma in PBS) was 63.4%. For the same compound, the “release (%)” value ([1]; Label release from TCO derivative 1.7 on trastuzumab, ^111In, PBS) was 78.9%, the “release (%)” value [1, 10] was 77.0% and the “release (%)” value [1, 11] was 86.4%.
For `O=C(CCCC(=O)Nc1cccnc1-c1nnc(-c2ncccc2NC(=O)CCCC(=O)NCCOCCOCCOCCOCCOCCOCCOCCOCCOCCO)nn1)NCCOCCOCCOCCOCCOCCOCCOCCOCCOCCO` [Compound 2.8, N^1,N^1′-(2,2′-(1,2,4,5-Tetrazine-3,6-diyl)bis(pyridine-3,2-diyl))bis(N^5-(29-hydroxy-3,6,9,12,15,18,21,24,27-nonaoxanonacosyl)glutaramide)], the “release (%)” value [1, 10] was 60.6% and the “release (%)” value [1, 11] was 79.9%.
For `C[C@]1(C(=O)ON2C(=O)CCC2=O)CC/C=C/[C@@H](OC(=O)NCCNC(=O)CCC(C(=O)O)N2CCN(CC(=O)O)CCN(CC(=O)O)CCN(CC(=O)O)CC2)CC1` (stereo partly shown) [Compound 1.4, NHS-TCO-C2-DOTAGA], the “release (%) without Cleaving Agent” value ([1]; ^111In, 50% mouse plasma in PBS) was 7.1% and the “release (%) without Cleaving Agent” value ([1]; ^111In, PBS) was 6.8%.
In the case of `O=C(O)CCCC(=O)Nc1cccnc1-c1nnc(-c2ncccc2NC(=O)CCCC(=O)O)nn1` [Compound 2.7, 5,5′-((2,2′-(1,2,4,5-Tetrazine-3,6-diyl)bis(pyridine-3,2-diyl))bis(azanediyl))bis(5-oxopentanoic acid)], the “release (%)” value [1, 10] was 55.3^a % and the “decrease of radioactivity circulating in blood” value [4] was “ca. 30%”.

From patent US20220331458A1, “AGENTS FOR CLEAVING LABELS FROM BIOMOLECULES IN VIVO” (TAGWORKS PHARMACEUTICALS B.V., priority 2019, published 2022)
